Test results taken from US11542240B2, “STK19 inhibitors for treatment of cancer” (TRUSTEES OF BOSTON UNIVERSITY, priority 2018, dated 2023).

Assays:
Assay in all cases: biochemical
Format in all cases: binding
[1] = target: panel of 468 diverse kinases (Homo sapiens, UniProt P14616); conditions: INSRR; 1000 nM; read-out: Percent Control
[2] = target: panel of 468 diverse kinases (Homo sapiens, UniProt P04049); conditions: RAF1; 1000 nM; read-out: Percent Control
[3] = target: panel of 468 diverse kinases (Homo sapiens, UniProt Q96PY6); conditions: NEK1; 1000 nM; read-out: Percent Control
[4] = target: panel of 468 diverse kinases (Mycobacterium tuberculosis, UniProt P9WI81); conditions: read-out: Percent Control
Chain of panel of 468 diverse kinases (Mycobacterium tuberculosis, UniProt P9WI81) (P9WI81 2-626 limits assumed): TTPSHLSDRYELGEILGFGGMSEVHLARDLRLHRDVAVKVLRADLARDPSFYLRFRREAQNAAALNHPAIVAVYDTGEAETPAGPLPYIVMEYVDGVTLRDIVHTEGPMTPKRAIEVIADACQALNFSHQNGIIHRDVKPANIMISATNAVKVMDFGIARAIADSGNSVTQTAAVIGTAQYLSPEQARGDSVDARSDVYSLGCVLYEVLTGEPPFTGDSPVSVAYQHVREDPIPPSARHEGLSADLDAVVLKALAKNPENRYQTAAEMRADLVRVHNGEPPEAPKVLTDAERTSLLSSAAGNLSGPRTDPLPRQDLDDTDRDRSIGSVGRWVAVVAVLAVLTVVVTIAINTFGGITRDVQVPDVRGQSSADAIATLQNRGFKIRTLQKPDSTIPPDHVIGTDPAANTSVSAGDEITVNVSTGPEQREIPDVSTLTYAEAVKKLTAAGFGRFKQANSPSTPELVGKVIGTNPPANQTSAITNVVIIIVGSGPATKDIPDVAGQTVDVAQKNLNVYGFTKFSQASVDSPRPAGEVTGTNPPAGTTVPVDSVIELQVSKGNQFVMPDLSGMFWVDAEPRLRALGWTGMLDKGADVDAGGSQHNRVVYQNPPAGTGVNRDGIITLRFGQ

[5] = target: panel of 468 diverse kinases (Homo sapiens, UniProt P35916); conditions: FLT4; 1000 nM; read-out: Percent Control
[6] = target: panel of 468 diverse kinases (Homo sapiens, UniProt Q2M2I8); conditions: AAK1; 1000 nM; read-out: Percent Control
[7] = target: panel of 468 diverse kinases (Homo sapiens, UniProt Q13705); conditions: ACVR2B; 1000 nM; read-out: Percent Control
Chain of panel of 468 diverse kinases (Homo sapiens, UniProt Q13705) (Q13705 19-512 limits assumed): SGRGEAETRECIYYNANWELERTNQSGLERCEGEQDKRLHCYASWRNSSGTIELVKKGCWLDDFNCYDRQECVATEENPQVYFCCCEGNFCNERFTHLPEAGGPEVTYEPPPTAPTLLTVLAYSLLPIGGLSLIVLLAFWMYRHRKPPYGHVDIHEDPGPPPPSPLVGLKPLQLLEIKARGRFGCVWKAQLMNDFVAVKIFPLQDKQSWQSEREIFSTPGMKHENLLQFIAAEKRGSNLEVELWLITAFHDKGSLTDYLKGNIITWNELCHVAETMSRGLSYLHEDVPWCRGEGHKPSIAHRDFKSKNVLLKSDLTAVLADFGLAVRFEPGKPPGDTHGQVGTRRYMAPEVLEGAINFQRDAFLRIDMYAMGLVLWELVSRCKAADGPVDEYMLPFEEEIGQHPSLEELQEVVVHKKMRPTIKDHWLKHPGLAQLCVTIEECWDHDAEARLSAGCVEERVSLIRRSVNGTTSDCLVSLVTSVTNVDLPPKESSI

[8] = target: panel of 468 diverse kinases (Homo sapiens, UniProt P51617); conditions: IRAK1; 1000 nM; read-out: Percent Control
[9] = target: panel of 468 diverse kinases (Homo sapiens, UniProt P09769); conditions: FGR; 1000 nM; read-out: Percent Control
Chain of panel of 468 diverse kinases (Homo sapiens, UniProt P09769) (P09769 2-529 limits assumed): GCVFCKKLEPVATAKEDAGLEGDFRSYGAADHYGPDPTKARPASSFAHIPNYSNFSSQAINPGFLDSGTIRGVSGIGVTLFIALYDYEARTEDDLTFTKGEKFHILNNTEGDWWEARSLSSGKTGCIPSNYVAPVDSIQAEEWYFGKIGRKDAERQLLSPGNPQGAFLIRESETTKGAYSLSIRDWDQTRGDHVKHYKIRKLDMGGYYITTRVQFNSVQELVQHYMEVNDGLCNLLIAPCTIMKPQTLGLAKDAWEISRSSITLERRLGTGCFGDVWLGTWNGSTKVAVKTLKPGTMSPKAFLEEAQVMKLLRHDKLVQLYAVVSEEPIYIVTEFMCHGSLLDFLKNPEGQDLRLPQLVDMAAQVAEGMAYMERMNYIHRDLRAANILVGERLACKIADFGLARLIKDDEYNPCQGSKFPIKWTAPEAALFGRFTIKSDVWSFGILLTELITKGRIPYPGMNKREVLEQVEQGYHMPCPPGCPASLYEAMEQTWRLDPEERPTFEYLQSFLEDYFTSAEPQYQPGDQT

[10] = target: panel of 468 diverse kinases (Homo sapiens, UniProt P49761); conditions: CLK3; 1000 nM; read-out: Percent Control
[11] = target: panel of 468 diverse kinases (Homo sapiens, UniProt Q96J92); conditions: WNK4; 1000 nM; read-out: Percent Control
[12] = target: panel of 468 diverse kinases (Homo sapiens, UniProt Q9UEE5); conditions: DRAK1; 1000 nM; read-out: Percent Control
[13] = target: panel of 468 diverse kinases (Homo sapiens, UniProt Q9H2X6); conditions: HIPK2; 1000 nM; read-out: Percent Control
[14] = target: panel of 468 diverse kinases (Homo sapiens, UniProt P57078); conditions: RIPK4; 1000 nM; read-out: Percent Control
[15] = target: panel of 468 diverse kinases (Homo sapiens, UniProt Q05655); conditions: PRKCD; 1000 nM; read-out: Percent Control
[16] = target: panel of 468 diverse kinases (Homo sapiens, UniProt O14965); conditions: AURKA; 1000 nM; read-out: Percent Control
[17] = target: panel of 468 diverse kinases (Homo sapiens, UniProt Q9C098); conditions: DCAMKL3; 1000 nM; read-out: Percent Control
[18] = target: panel of 468 diverse kinases (Homo sapiens, UniProt P51955); conditions: NEK2; 1000 nM; read-out: Percent Control
[19] = target: panel of 468 diverse kinases (Homo sapiens, UniProt O14578); conditions: CIT; 1000 nM; read-out: Percent Control
[20] = target: panel of 468 diverse kinases (Homo sapiens, UniProt Q9UEW8); conditions: STK39; 1000 nM; read-out: Percent Control
[21] = target: panel of 468 diverse kinases (Homo sapiens, UniProt Q8IVW4); conditions: CDKL3; 1000 nM; read-out: Percent Control
[22] = target: panel of 468 diverse kinases (Homo sapiens, UniProt Q9H0K1); conditions: SIK2; 1000 nM; read-out: Percent Control
[23] = target: panel of 468 diverse kinases (Homo sapiens, UniProt O15530); conditions: PDPK1; 1000 nM; read-out: Percent Control
[24] = target: panel of 468 diverse kinases (Homo sapiens, UniProt Q9Y2H1); conditions: NDR2; 1000 nM; read-out: Percent Control
Chain of panel of 468 diverse kinases (Homo sapiens, UniProt Q9Y2H1) (Q9Y2H1 2-464 limits assumed): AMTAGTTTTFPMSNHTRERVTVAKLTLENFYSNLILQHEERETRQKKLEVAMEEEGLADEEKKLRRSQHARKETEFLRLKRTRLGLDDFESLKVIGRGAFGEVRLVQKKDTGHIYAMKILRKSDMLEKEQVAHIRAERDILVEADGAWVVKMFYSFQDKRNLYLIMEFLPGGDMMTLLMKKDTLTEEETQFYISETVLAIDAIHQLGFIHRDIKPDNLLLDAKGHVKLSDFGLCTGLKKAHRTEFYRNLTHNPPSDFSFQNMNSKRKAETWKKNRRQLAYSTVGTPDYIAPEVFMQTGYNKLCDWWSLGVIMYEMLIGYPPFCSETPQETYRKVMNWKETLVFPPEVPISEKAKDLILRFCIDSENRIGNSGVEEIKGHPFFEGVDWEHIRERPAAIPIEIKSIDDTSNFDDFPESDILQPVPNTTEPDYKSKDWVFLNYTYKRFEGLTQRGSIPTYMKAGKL

[25] = target: panel of 468 diverse kinases (Homo sapiens, UniProt Q8NEB9); conditions: VPS34; 1000 nM; read-out: Percent Control
[26] = target: panel of 468 diverse kinases (Homo sapiens, UniProt P32298); conditions: GRK4; 1000 nM; read-out: Percent Control
[27] = target: panel of 468 diverse kinases (Homo sapiens, UniProt Q9NRM7); conditions: LATS2; 1000 nM; read-out: Percent Control
[28] = target: panel of 468 diverse kinases (Homo sapiens, UniProt Q96BR1); conditions: SGK3; 1000 nM; read-out: Percent Control
[29] = target: panel of 468 diverse kinases (Homo sapiens, UniProt P17948); conditions: FLT1; 1000 nM; read-out: Percent Control
Chain of panel of 468 diverse kinases (Homo sapiens, UniProt P17948) (P17948 27-1338 limits assumed): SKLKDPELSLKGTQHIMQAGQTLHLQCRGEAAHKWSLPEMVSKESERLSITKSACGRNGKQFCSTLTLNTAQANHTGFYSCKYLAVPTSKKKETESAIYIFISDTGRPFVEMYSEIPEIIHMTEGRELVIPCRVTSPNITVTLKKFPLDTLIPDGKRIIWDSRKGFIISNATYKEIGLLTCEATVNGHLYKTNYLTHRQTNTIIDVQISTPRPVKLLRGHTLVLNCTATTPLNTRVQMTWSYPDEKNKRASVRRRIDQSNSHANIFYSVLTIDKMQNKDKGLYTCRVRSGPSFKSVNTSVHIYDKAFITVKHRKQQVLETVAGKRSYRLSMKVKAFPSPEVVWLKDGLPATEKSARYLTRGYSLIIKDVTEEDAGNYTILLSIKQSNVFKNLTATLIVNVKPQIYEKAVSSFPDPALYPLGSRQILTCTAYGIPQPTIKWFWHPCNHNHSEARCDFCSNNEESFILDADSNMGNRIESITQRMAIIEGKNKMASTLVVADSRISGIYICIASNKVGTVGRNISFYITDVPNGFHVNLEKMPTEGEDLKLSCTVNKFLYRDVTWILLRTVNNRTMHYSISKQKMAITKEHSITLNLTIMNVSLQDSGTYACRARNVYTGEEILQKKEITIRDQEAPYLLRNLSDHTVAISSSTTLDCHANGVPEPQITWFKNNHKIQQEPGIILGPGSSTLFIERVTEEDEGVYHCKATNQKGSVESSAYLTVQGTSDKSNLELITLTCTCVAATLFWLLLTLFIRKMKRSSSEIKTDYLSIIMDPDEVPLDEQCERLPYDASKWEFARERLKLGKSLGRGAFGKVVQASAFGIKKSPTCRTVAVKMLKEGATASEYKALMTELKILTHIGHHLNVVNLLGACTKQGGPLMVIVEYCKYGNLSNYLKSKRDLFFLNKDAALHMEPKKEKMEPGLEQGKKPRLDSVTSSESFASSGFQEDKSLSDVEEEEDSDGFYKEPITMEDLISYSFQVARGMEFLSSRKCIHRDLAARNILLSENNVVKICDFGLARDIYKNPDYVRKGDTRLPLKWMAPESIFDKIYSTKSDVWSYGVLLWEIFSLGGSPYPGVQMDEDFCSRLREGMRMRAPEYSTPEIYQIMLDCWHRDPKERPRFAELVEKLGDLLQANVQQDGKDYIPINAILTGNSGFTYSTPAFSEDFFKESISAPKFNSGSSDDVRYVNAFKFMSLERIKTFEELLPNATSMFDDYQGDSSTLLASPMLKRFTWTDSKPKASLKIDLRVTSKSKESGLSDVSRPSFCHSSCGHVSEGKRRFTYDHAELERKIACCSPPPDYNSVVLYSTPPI

[30] = target: panel of 468 diverse kinases (Homo sapiens, UniProt Q14012); conditions: CAMK1; 1000 nM; read-out: Percent Control
[31] = target: panel of 468 diverse kinases (Homo sapiens, UniProt P42336, E545K); conditions: PIK3CA(E545K); 1000 nM; read-out: Percent Control

Chain of panel of 468 diverse kinases (Homo sapiens, UniProt P14616) (P14616 27-742 limits assumed): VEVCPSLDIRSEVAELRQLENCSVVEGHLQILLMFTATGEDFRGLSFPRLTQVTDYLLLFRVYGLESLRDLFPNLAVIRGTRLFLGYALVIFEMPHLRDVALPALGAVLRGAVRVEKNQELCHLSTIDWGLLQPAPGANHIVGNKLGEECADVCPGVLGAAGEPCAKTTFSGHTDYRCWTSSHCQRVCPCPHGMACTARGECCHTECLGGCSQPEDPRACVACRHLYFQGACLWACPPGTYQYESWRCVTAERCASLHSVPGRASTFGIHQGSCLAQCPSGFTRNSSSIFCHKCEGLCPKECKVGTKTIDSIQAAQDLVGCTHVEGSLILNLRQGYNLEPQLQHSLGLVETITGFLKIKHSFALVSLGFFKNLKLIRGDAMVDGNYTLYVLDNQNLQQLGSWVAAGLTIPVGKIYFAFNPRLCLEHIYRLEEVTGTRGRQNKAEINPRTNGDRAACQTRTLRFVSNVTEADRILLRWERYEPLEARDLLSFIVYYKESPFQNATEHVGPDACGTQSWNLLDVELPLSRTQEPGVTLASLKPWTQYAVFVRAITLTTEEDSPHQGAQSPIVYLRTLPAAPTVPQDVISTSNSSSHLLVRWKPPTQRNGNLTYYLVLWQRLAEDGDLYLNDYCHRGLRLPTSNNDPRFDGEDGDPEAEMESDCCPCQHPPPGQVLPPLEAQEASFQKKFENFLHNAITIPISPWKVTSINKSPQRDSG
Chain of panel of 468 diverse kinases (Homo sapiens, UniProt P14616) (P14616 747-1297 limits assumed): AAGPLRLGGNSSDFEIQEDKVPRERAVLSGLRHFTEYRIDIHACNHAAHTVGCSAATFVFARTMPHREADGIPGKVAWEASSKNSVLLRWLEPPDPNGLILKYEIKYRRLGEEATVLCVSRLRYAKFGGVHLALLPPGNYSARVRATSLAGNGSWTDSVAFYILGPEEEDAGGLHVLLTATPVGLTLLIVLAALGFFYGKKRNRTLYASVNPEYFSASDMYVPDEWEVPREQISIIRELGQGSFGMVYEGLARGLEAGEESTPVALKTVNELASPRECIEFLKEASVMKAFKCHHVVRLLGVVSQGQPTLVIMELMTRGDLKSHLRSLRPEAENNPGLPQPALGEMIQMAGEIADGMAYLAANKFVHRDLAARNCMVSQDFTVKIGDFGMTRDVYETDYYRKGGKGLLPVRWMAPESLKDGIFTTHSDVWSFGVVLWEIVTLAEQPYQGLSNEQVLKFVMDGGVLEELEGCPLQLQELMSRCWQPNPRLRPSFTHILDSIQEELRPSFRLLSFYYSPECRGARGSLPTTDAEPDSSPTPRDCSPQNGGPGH

SMILES: COc1cc2nc(NC3CC3)nc(NC3CCN(C(C)C)CC3)c2cc1OC [Formula IV]
- remaining activity at 1 µM [1]: 86%
- remaining activity at 1 µM [2]: 83%
- remaining activity at 1 µM [3]: 100%
- remaining activity at 1 µM [4]: 62%
- remaining activity at 1 µM [5]: 80%
- remaining activity at 1 µM [6]: 91%
- remaining activity at 1 µM [7]: 76%
- remaining activity at 1 µM [8]: 80%
- remaining activity at 1 µM [9]: 100%
- remaining activity at 1 µM [10]: 91%
- remaining activity at 1 µM [11]: 70%
- remaining activity at 1 µM [12]: 96%
- remaining activity at 1 µM [13]: 64%
- remaining activity at 1 µM [14]: 99%
- remaining activity at 1 µM [15]: 97%
- remaining activity at 1 µM [16]: 56%
- remaining activity at 1 µM [17]: 92%
- remaining activity at 1 µM [18]: 100%
- remaining activity at 1 µM [19]: 100%
- remaining activity at 1 µM [20]: 58%
- remaining activity at 1 µM [21]: 66%
- remaining activity at 1 µM [22]: 81%
- remaining activity at 1 µM [23]: 97%
- remaining activity at 1 µM [24]: 100%
- remaining activity at 1 µM [25]: 51%
- remaining activity at 1 µM [26]: 100%
- remaining activity at 1 µM [27]: 95%
- remaining activity at 1 µM [28]: 60%
- remaining activity at 1 µM [29]: 95%
- remaining activity at 1 µM [30]: 91%
- remaining activity at 1 µM [31]: 48%
